Measurements as given in patent US5075338A (priority 1986, dated 1991).

Tests used:
nictitating membrane = experiment: noradrenaline releasing effect in cats (in vivo), contraction of the nictitating membrane; conditions: anesthetized cat, PEA i.p.
[1] = psychostimulant effect in rats: shuttle-box test; type: in vivo, rat
[2] = effect exerted on food intake, in rats; type: in vivo, rat
noradrenaline release = conditions: background; cited from earlier work
[3] = psychostimulant effect in rats: modified jumping test; type: in vivo, rat
[4] = test system: neuronal uptake of indirectly acting endogenic sympathomimetic amines; conditions: background; cited from earlier work

SMILES	contraction of the nictitating membrane (nictitating membrane)	intersignal reaction ([1]; 1 mg/kg s.c. daily)	acquisition of a conditioned reaction and its retention ([1]; 1 mg/kg s.c. daily, five days of observation)	general motility ([1]; 5-10 mg/kg)	food intake ([2]; rats fasted for 96 hours, 2-5 mg/kg, for 3-4 hours)	anorectic effect ([2]; well-fed satiated rats, 1 mg/kg)	noradrenaline releasing effect (noradrenaline release)	learning and retention ([3]; larger doses, above 3 mg/kg)	learning and retention ([3]; small doses, up to 1-2 mg/kg)	inhibition of neuronal uptake of indirectly acting endogenic sympathomimetic amines [4]
CC(N)Cc1ccccc1 (stereo not drawn) [amphetamine, reference compound]	contraction of long duration	disproportionately high intersignal reaction	significantly increases the acquizition of a conditioned reaction and its retention	extremely high general motility increasing effect	completely inhibited	exhibits an anorectic effect	strong and long lasting	deteriorate	improve	–
CN[C@@H](C)Cc1ccccc1 [methamphetamine]	contraction of long duration	–	–	–	–	–	strong and long lasting	–	–	inhibits the neuronal uptake of indirectly acting endogenic sympathomimetic amines to a significant extent
